# Assay results taken from ChEMBL document CHEMBL3758122, “Multitarget opioid ligands in pain relief: New players in an old game” (Eur J Med Chem, 2016).
# Starred links: 1 amine or outer side, 2 acyl side, 3 side chain; linkers in the order of their positions; H or OH if unused. Positions of bridges follow the written chain, without caps; N, C: chain ends. Non-standard residues stand in square brackets, D forms with d. Residues, ends and D or L forms follow the SMILES beside them. *: point of attachment. Dmt = Cc1cc(O)cc(C)c1C[C@H](N)C(=O)O; Tic = O=C(O)[C@@H]1Cc2ccccc2CN1; dTic = O=C(O)[C@H]1Cc2ccccc2CN1; NHBn = c1ccc(CN*)cc1; CH2 = C([*:1])[*:2]; NHPh = c1ccc(N*)cc1
# Key:
# [1] = molecular target: Delta-type opioid receptor (Rattus norvegicus) (UniProt P33533); assay: (§1) Agonist activity at rat delta opioid receptor transfected in C6 cells by [35S]GTPgammaS binding assay; type: functional, cell-based
# [2] = molecular target: Mu-type opioid receptor (Rattus norvegicus) (UniProt P33535); assay: (§2) Agonist activity at rat mu opioid receptor transfected in C6 cells by [35S]GTPgammaS binding assay; type: functional, cell-based
# [3] = molecular target: T1, Delta-type opioid receptor (Homo sapiens, UniProt P41143); assay: Binding affinity at delta opioid receptor (unknown origin)
# [4] = molecular target: T2, Kappa-type opioid receptor (Homo sapiens, UniProt P41145); assay: Binding affinity to kappa opioid receptor (unknown origin)
# Mu-type opioid receptor [5] = molecular target: T3, Mu-type opioid receptor (Homo sapiens, UniProt P35372); assay: Binding affinity at mu opioid receptor (unknown origin)
# [6] = molecular target: Delta-type opioid receptor (Mus musculus) (UniProt P32300); assay: Antagonist activity at delta-opioid receptor in mouse vas deferens; type: tissue-based
# [7] = molecular target: T2, Kappa-type opioid receptor; assay: Agonist activity at human kappa opioid receptor expressed in CHO cell membrane by [35S]GTP-gammaS binding assay
# Mus musculus [8] = assay: Antinociceptive activity in icv dosed mouse after 20 mins by tail flick test; type: functional
# Mu-type opioid receptor [9] = molecular target: T3, Mu-type opioid receptor; assay: Agonist activity at human mu opioid receptor expressed in CHO cells by [35S]GTP-gammaS binding assay
# Mus musculus [10] = assay: Antinociceptive activity in sc dosed Swiss Webster mouse measured after 30 mins by hot plate test; type: functional; settings: 0.5 h
# [11] = molecular target: T1, Delta-type opioid receptor; assay: Displacement of [3H]DPDPE from human delta opioid receptor expressed in CHO cells; type: cell-based
# Mu-type opioid receptor [12] = molecular target: T3, Mu-type opioid receptor; assay: Displacement of [3H]DAMGO from human mu opioid receptor expressed in CHO cell membrane; type: cell membranes
# [13] = molecular target: T1, Delta-type opioid receptor; assay: Antagonist activity at human delta opioid receptor expressed in CHO cell membrane assessed as inhibition of […]-induced [35S]-GTP-gammaS binding; type: cell membranes
# [14] = molecular target: T1, Delta-type opioid receptor; assay: Displacement of [3H]naltrindole from human delta opioid receptor expressed in CHO cell membrane; type: cell membranes
# [15] = molecular target: Delta-type opioid receptor (Rattus norvegicus, UniProt P33533); assay: as §1; type: functional, cell-based
# Mu-type opioid receptor [16] = molecular target: Mu-type opioid receptor (Rattus norvegicus, UniProt P33535); assay: as §2; type: functional, cell-based
# [17] = molecular target: T1, Delta-type opioid receptor; assay: Agonist activity at human delta-opioid receptor expressed in CHO cells by [35S]GTPgammaS binding assay; type: functional, cell-based
# [18] = molecular target: T4, Delta-type opioid receptor (Mus musculus, UniProt P32300); assay: Agonist activity at delta-opioid receptor in mouse vas deferens; type: tissue-based
# Mu-type opioid receptor [19] = molecular target: T3, Mu-type opioid receptor; assay: Agonist activity at mu opioid receptor (unknown origin) assessed as [35S]GTPgammaS binding by cell based assay; type: functional
# [20] = molecular target: T1, Delta-type opioid receptor; assay: Partial agonist activity at delta opioid receptor (unknown origin) assessed as [35S]GTPgammaS binding by cell based assay
# [21] = molecular target: T1, Delta-type opioid receptor; assay: Partial agonist activity at delta opioid receptor (unknown origin) assessed as inhibition of adenylyl cyclase activity
# [22] = molecular target: T2, Kappa-type opioid receptor; assay: Agonist activity at kappa opioid receptor (unknown origin) assessed as [35S]GTPgammaS binding by cell based assay; type: functional
# [23] = molecular target: Kappa-type opioid receptor (Rattus norvegicus, UniProt P34975); assay: Displacement of [3H]DAMGO from kappa opioid receptor in albino Sprague-Dawley rat after 90 mins by liquid scintillation
# [24] = molecular target: T1, Delta-type opioid receptor; assay: Antagonist activity at […] delta opioid receptor in CD1 mouse assessed as electrically induced twitches
# Mu-type opioid receptor [25] = molecular target: Mu-type opioid receptor (Cavia porcellus, UniProt P97266); assay: Agonist activity at mu-opioid receptor in guinea pig ileum assessed as inhibition of electrically induced twitches; type: tissue-based
# Rattus norvegicus = assay: Analgesic activity in sc dosed rat by tail flick test; type: functional
# [26] = molecular target: T2, Kappa-type opioid receptor; assay: Displacement of [3H]U69,593 from human kappa opioid receptor expressed in CHO cell membrane; type: cell membranes
# Mus musculus [27] = assay: Toxicity in sc dosed Kunming mouse assessed as sedation by rotarod test; type: organism-based; settings: in vivo
# Mus musculus [28] = assay: Antinociceptive activity in sc dosed Kunming mouse measured after 30 mins by hot plate test; type: functional; settings: 0.5 h
# Mu-type opioid receptor [29] = molecular target: T3, Mu-type opioid receptor; assay: Displacement of [3H]D-Ala2,N-Me-Phe4,Gly5-ol]-Enkephalin from human mu opioid receptor expressed in CHO cell membrane; type: cell membranes
# Mu-type opioid receptor [30] = molecular target: T3, Mu-type opioid receptor; assay: Partial agonist activity at mu opioid receptor (unknown origin) expressed in CHO cell membrane assessed as stimulation of [35S]GTP-gamma-S binding; type: cell membranes
# [31] = molecular target: T1, Delta-type opioid receptor; assay: Antagonist activity at human delta opioid receptor expressed in CHO cell membrane assessed as inhibition of DPDPE-induced [35S]-GTP-gammaS binding; type: cell membranes
# Mu-type opioid receptor [32] = molecular target: T3, Mu-type opioid receptor; assay: Displacement of [3H]DPN from human mu opioid receptor expressed in CHO cells by liquid scintillation counting; type: cell-based
# [33] = molecular target: T1, Delta-type opioid receptor; assay: Displacement of [3H]DPN from human delta opioid receptor expressed in CHO cells by liquid scintillation counting; type: cell-based
# [34] = molecular target: T4, Delta-type opioid receptor; assay: Antagonist activity at delta-opioid receptor in mouse vas deferens assessed as inhibition of DPDPE-induced inhibition of electrically induced twitches; type: tissue-based; settings: read-out: pA2 (converted)
# Chain of Mu-type opioid receptor (Rattus norvegicus) (P33535 whole entry): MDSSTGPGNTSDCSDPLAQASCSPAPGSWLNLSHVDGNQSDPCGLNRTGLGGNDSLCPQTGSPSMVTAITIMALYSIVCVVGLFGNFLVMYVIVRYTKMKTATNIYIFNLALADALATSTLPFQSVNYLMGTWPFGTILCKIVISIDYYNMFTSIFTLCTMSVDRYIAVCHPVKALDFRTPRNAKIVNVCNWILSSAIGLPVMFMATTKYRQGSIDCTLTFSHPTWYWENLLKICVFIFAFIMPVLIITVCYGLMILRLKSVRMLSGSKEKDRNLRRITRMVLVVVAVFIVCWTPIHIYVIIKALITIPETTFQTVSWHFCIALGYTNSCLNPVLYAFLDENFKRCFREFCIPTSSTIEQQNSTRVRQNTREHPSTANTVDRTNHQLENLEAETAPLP
# T4 sequence (P32300 whole entry): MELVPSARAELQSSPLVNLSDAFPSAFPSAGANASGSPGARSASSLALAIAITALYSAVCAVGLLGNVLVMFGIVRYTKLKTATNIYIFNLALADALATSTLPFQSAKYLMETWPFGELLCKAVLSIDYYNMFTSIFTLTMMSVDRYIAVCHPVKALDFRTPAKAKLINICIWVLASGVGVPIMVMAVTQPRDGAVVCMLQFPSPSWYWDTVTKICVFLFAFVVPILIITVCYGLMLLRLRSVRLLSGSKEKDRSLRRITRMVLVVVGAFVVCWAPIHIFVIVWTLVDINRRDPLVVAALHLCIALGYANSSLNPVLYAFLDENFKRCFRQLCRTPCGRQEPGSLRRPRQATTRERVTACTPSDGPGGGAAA
# Chain of Delta-type opioid receptor (Rattus norvegicus) (P33533 whole entry): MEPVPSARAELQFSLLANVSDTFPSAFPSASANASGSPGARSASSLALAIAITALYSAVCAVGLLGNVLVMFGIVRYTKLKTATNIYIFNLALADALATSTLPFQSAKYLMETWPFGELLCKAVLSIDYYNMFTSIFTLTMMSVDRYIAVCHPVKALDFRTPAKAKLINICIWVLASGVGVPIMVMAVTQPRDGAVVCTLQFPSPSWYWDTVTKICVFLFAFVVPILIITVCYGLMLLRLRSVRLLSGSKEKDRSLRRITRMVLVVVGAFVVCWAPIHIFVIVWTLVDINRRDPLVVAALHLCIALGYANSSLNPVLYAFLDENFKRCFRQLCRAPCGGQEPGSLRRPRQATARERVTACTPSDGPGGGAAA
# T3 sequence (P35372 whole entry): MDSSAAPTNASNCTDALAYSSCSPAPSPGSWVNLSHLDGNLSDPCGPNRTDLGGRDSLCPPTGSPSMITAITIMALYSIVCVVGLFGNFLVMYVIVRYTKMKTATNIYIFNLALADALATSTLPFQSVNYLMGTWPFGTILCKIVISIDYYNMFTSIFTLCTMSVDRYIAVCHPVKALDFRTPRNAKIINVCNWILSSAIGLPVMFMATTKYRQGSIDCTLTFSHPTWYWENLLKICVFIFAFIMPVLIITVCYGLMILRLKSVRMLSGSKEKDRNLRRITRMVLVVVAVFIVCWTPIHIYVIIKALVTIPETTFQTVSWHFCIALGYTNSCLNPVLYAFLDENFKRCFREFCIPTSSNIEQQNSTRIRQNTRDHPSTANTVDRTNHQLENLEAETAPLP
# T1 sequence (P41143 whole entry): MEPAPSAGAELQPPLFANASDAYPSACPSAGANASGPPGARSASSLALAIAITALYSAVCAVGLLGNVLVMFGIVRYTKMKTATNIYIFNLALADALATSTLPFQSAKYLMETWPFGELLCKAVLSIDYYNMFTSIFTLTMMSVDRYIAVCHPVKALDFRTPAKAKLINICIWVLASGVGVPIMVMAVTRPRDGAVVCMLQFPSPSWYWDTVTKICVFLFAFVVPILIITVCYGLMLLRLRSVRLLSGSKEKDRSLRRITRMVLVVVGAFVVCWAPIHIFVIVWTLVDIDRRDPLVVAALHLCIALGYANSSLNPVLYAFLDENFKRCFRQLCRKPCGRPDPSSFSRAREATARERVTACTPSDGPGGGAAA
# T2 sequence (P41145 whole entry): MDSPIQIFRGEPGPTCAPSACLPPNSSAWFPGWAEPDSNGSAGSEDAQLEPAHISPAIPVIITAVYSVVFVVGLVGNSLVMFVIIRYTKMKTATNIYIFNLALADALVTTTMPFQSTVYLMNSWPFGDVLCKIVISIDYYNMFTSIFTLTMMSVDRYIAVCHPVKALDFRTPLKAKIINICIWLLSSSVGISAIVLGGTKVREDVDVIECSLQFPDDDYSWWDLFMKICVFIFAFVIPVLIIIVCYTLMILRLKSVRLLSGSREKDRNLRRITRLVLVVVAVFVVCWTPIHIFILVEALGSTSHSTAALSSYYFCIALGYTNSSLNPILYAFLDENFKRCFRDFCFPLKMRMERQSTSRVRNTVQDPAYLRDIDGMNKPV
# Chain of Delta-type opioid receptor (Rattus norvegicus, UniProt P33533) (P33533 whole entry): as the sequence (P33533 whole entry) above
# Chain of Mu-type opioid receptor (Cavia porcellus, UniProt P97266) (P97266 whole entry): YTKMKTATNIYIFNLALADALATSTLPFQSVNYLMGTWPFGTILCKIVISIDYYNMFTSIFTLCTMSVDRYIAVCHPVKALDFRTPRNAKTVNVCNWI
# Chain of Mu-type opioid receptor (Rattus norvegicus, UniProt P33535) (P33535 whole entry): as the sequence (P33535 whole entry) above
# Chain of Kappa-type opioid receptor (Rattus norvegicus, UniProt P34975) (P34975 whole entry): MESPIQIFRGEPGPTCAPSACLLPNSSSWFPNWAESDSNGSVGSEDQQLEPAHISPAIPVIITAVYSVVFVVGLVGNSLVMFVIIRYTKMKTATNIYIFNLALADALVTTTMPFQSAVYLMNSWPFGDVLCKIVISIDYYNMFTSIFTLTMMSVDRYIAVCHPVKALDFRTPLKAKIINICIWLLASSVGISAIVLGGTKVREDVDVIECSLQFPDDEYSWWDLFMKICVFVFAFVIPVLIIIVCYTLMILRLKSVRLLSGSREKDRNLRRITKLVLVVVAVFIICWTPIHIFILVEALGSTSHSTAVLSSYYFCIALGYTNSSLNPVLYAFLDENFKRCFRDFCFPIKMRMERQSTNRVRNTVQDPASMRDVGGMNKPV
# Chain of Delta-type opioid receptor (Mus musculus) (P32300 whole entry): as the sequence (P32300 whole entry) above
smiles,measurement,setting,value
CCCC[C@@H]1NC(=O)[C@H](Cc2cccc3ccccc23)NC(=O)[C@@H](NC(=O)[C@@H](N)Cc2ccc(O)cc2)CSSC[C@H](C(N)=O)NC1=O,Emax,[1],100%
same,Emax,[2],100%
O=C1c2ccc(O)cc2[C@@]23CCCC[C@H]2[C@@H]1N(CC1CCCO1)CC3 (stereo not given in full),Ki,[3],1 nM
same,Ki,[4],0.18 nM
same,Ki,Mu-type opioid receptor [5],0.38 nM
N[C@@H](Cc1ccc(O)cc1)C(=O)N1Cc2ccccc2CC1CN[C@@H](Cc1ccccc1)C(=O)NC(CC1CCCCC1)C(=O)O (stereo not given in full),Ki,[3],0.259 nM
same,Ki,Mu-type opioid receptor [5],1050 nM
same,Ke,[6],0.175 nM
NC(=O)[C@@H]1CSCSC[C@@H](NC(=O)[C@@H](N)Cc2ccc(O)cc2)C(=O)N[C@@H](Cc2ccccc2)C(=O)N[C@@H](Cc2ccccc2)C(=O)N1 (H-Y[dC]FFC-NH2; linker 2-5 via CH2),Ki,[3],1.8 nM
same,Ki,Mu-type opioid receptor [5],0.016 nM
NC(=O)[C@@H]1CSSC[C@@H](NC(=O)[C@@H](N)Cc2ccc(O)cc2)C(=O)N[C@@H](Cc2ccccc2)C(=O)N[C@@H](Cc2ccccc2)C(=O)N1 (H-Y[dC]FFC-NH2; disulfide 2-5),Emax,[1],69%
same,Emax,[2],77%
CCCC[C@@H]1NC(=O)[C@H](Cc2cccc3ccccc23)NC(=O)[C@@H](NC(=O)[C@@H](N)Cc2ccc(O)cc2)CSSC[C@H](C(=O)O)NC1=O,Emax,[1],100%
same,Emax,[2],100%
Cc1cc(O)cc(C)c1C[C@H](N)C(=O)N1Cc2ccccc2C[C@H]1CN[C@@H](Cc1ccccc1)C(=O)N[C@@H](Cc1ccccc1)C(N)=O,Ki,[3],0.44 nM
same,Ki,Mu-type opioid receptor [5],0.94 nM
O=C(/C=C/C(=O)Oc1ccc2c(c1)[C@@]13CCCC[C@H]1[C@@H](C2)N(CC1CCC1)CC3)Oc1ccc2c(c1)[C@@]13CCCC[C@H]1[C@@H](C2)N(CC1CCC1)CC3,EC50,[7],4.3 nM
same,ED50,Mus musculus [8],0.27 nmol
Oc1ccc2c(c1)[C@@]13CCCC[C@H]1[C@@H](C2)N(CC1CCC1)CC3 [BUTORPHAN],Ki,[4],0.073 nM
CN1CC[C@]23c4c5ccc(O)c4O[C@@]2(CO)C(=O)CC[C@@]3(O)[C@H]1C5,EC50,Mu-type opioid receptor [9],35 nM
same,ED50,Mus musculus [10],4.3 mg/kg
same,Ki,[11],208 nM
same,Ki,Mu-type opioid receptor [12],3.2 nM
Cc1cc(O)cc(C)c1C[C@H](N)C(=O)N1Cc2ccccc2C[C@H]1C(=O)NCC(=O)N1CCc2ccccc2C1,EC50,Mu-type opioid receptor [9]; cho,22 nM
same,IC50,[13]; cho,2.3 nM
same,Ki,[14]; cho,0.75 nM
same,Ki,Mu-type opioid receptor [12]; cho,3.3 nM
O=C(CCCCCCCCC(=O)Oc1ccc2c(c1)[C@@]13CCCC[C@H]1[C@@H](C2)N(CC1CCC1)CC3)Oc1ccc2c(c1)[C@@]13CCCC[C@H]1[C@@H](C2)N(CC1CCC1)CC3,ED50,Mus musculus [8],3 nmol
CCCC[C@@H]1NC(=O)[C@H](Cc2cccc3ccccc23)NC(=O)[C@H](NC(=O)[C@@H](N)Cc2ccc(O)cc2)CSSC[C@@H](C(=O)O)NC1=O,EC50,[15],22 nM
same,EC50,Mu-type opioid receptor [16],5.1 nM
Cc1cc(O)cc(C)c1C[C@H](N)C(=O)N1Cc2ccccc2C[C@H]1C(=O)N[C@@H](Cc1ccccc1)C(=O)N[C@@H](Cc1ccccc1)C(N)=O (H-[Dmt][Tic]FF-NH2),Ki,Mu-type opioid receptor [5],1.19 nM
Cc1cc(O)cc(C)c1C[C@H](N)C(=O)N1Cc2ccccc2C[C@@H]1C(=O)NCc1nc2ccccc2[nH]1,EC50,[17],0.0813 nM
same,EC50,[18],0.02 nM
same,Ki,[3],0.021 nM
same,Ki,Mu-type opioid receptor [5],0.5 nM
CN1CC[C@]23c4c5ccc(O)c4O[C@@]2(C)c2[nH]c4ccccc4c2C[C@@]3(CCCc2ccccc2)[C@H]1C5,Ki,[3],1.95 nM
same,EC50,Mu-type opioid receptor [19],45.1 nM
same,Ki,Mu-type opioid receptor [5],10.2 nM
same,EC50,[20],0.87 nM
NC(=O)[C@H]1CSCSC[C@H](NC(=O)[C@@H](N)Cc2ccc(O)cc2)C(=O)N[C@@H](Cc2ccccc2)C(=O)N[C@@H](Cc2ccc3ccccc3c2)C(=O)N1,EC50,[21],36 nM
same,Ki,[3],0.48 nM
same,Emax,Mu-type opioid receptor [19],99%
same,Ki,[4],1.3 nM
same,Emax,[22],89%
same,Ki,Mu-type opioid receptor [5],0.47 nM
C=CCN1C[C@H](C)N([C@@H](c2cccc(O)c2)c2cccc(C(=O)N(C)c3cccc(F)c3)c2)C[C@H]1C,Ki,[23],0.46 nM
same,IC50,[24],3.4 nM
same,IC50,Mu-type opioid receptor [25],1 nM
CO[C@@]12CCC(=O)[C@]3(C)Oc4c(O)ccc5c4[C@@]31CCN(C)[C@@H]2C5,Ki,[3],13.3 nM
same,Ki,[4],25.2 nM
same,Ki,Mu-type opioid receptor [5],0.01 nM
CN1CC[C@]23c4c5ccc(O)c4O[C@H]2[C@@H](O)C=C[C@H]3[C@H]1C5 [MORPHINE],ED50,Rattus norvegicus,2.7 mg/kg
Cc1cc(O)cc(C)c1C[C@H](N)C(=O)N1Cc2ccccc2C[C@@H]1C(=O)NCC(=O)N(c1ccccc1)c1ccccc1,EC50,Mu-type opioid receptor [9],4.8 nM
same,IC50,[13],8.3 nM
same,Ki,[14],0.94 nM
same,Ki,Mu-type opioid receptor [12],1.71 nM
C[C@H]1[C@H]2Cc3ccc(O)cc3[C@]1(C)CCN2CCC(=O)Nc1ccccc1,Ki,[3],29 nM
same,Ki,Mu-type opioid receptor [5],0.83 nM
same,ED50,Rattus norvegicus,2.03 mg/kg
CCCC[C@@H]1NC(=O)[C@H](Cc2cccc3ccccc23)NC(=O)[C@H](NC(=O)[C@@H](N)Cc2ccc(O)cc2)CSSC[C@@H](C(N)=O)NC1=O,EC50,[15],22 nM
Cc1cc(O)cc(C)c1C[C@H](N)C(=O)N1Cc2ccccc2C[C@H]1C(=O)NCC(=O)Nc1ccccc1 (H-[Dmt]-[Tic]-Gly-NHPh),Ki,[3],0.16 nM
same,Ki,Mu-type opioid receptor [5],0.042 nM
Nc1nc2cc3c(cc2s1)CC1[C@@H]2CCCC[C@]32CCN1CC1CC1,Ki,[26],0.049 nM
same,ED50,Mus musculus [27],1.94 mg/kg
same,ED50,Mus musculus [28],1.46 mg/kg
same,Ki,Mu-type opioid receptor [29],1.5 nM
same,EC50,Mu-type opioid receptor [30],73 nM
Cc1cc(O)cc(C)c1C[C@H](N)C(=O)N1Cc2ccccc2C[C@@H]1C(=O)NCC(=O)NCc1ccccc1 (H-[Dmt]-[dTic]-Gly-NHBn),pKb,[31],9.81
Cc1cc(O)cc(C)c1C[C@H](N)C(=O)N1Cc2ccccc2C[C@H]1C(=O)NCC(=O)NCc1ccccc1 (H-[Dmt]-[Tic]-Gly-NHBn),EC50,[18],2.57 nM
same,Ki,Mu-type opioid receptor [32],16.2 nM
same,Ki,[3],0.16 nM
same,Ki,Mu-type opioid receptor [5],0.031 nM
same,Ki,[33],0.151 nM
same,Kb,[34],0.708 nM
same,EC50,Mu-type opioid receptor [25],31.6 nM
